Source: paper PMC6199744, “Development of Chemical Proteomics for the Folateome and Analysis of the Kinetoplastid Folateome” (ACS Infectious Diseases, 2018)
Where “and” joins values, the source holds several entries; their conditions need not be identical. Equal values may be shown once. Read-outs that look alike come from different tables or passages of the source.

Tested on: L. major lysate proteins
Assay: Multitargeted bead mixture chemoproteomics, single concentration competition, proteome-wide
Assay type: binding
Conditions: for fold change: vehicle control = 1

## Nc1nc2c(c(=O)[nH]1)N(C=O)C(CNc1ccc(C(=O)N[C@@H](CCC(=O)O)C(=O)O)cc1)CN2 (some centres unmarked) [LEU, leucovorin]
  fold change relative to vehicle control: 1.05 and 1.2 and 1.04
  fold change vs vehicle control: 0.97 and 1.04
Protein CLI00016468.1 KINETOPLASTID MEMBRANE PROTEIN-11
  fold change vs vehicle control: 0.87
Protein LINJ.03.0240 RIBOSOMAL PROTEIN L38, PUTATIVE
  fold change vs vehicle control: 0.99
Protein LINJ.11.0780 40S RIBOSOMAL PROTEIN S21, PUTATIVE
  fold change vs vehicle control: 1.06
Protein LINJ.11.0960 40S RIBOSOMAL PROTEIN S5
  fold change: 1.08
Protein LINJ.13.0990 PROTEASOME REGULATORY ATPASE SUBUNIT 2, PUTATIVE
  fold change vs vehicle control: 0.99
Protein LINJ.15.0330 RIBONUCLEOPROTEIN P18, MIT[…], PUTATIVE
  fold change vs vehicle control: 1.01
Protein LINJ.19.0090 FIBRILLARIN, PUTATIVE
  fold change: 0.98
Protein LINJ.23.0860, 3-KETOACYL-COA THIOLASE, PUTATIVE
  fold change relative to vehicle control: 1.25
Protein LINJ.24.2300, 60S RIBOSOMAL PROTEIN L12, PUTATIVE
  fold change relative to vehicle control: 1.07
Protein LINJ.25.2230 SUCCINYL-COA […] SUBUNIT, PUTATIVE
  fold change vs vehicle control: 1.12
Protein LINJ.26.1630 40S RIBOSOMAL PROTEIN S33, PUTATIVE
  fold change vs vehicle control: 0.97
Protein LINJ.28.1100 RIBOSOMAL PROTEIN S20, PUTATIVE
  fold change vs vehicle control: 0.97
Protein LINJ.28.1940, R[…] A, 51KDA SUBUNIT, PUTATIVE
  fold change relative to vehicle control: 1.01
Protein LINJ.28.2280 DYNEIN LIGHT CHAIN LC6, FLAGELLAR OUTER ARM, PUTATIVE
  fold change: 0.84
Protein LINJ.28.2870 PROTEIN PHOSPHATASE 4 CATALYTIC SUBUNIT, PUTATIVE
  fold change: 0.86
Protein LINJ.31.1600, […] OXIDASE VIII (COX VIII), PUTATIVE
  fold change relative to vehicle control: 0.98
Protein LINJ.33.1730, CYCLOPHILIN 4, PUTATIVE
  fold change relative to vehicle control: 1.85
Protein LINJ.34.0670 PROTEASOME REGULATORY NON-ATP-ASE SUBUNIT 11, PUTATIVE,19S PROTEASOME REGULATORY SUBUNIT
  fold change vs vehicle control: 0.93
Protein LINJ.36.0780 PROTEIN KINASE, PUTATIVE,MITOGEN-ACTIVATED PROTEIN KINASE, PUTATIVE
  fold change vs vehicle control: 0.84
Protein LINJ.36.3960, BASIC TRANSCRIPTION FACTOR 3A, PUTATIVE
  fold change relative to vehicle control: 2.31
Protein LINJ.36.4080, HY[…], CONSERVED
  fold change relative to vehicle control: 1.26
Protein LINJ.36.4180 HS1VU COMPLEX PROTEOLYTIC SUBUNIT-LIKE
  fold change: 0.87
Protein LINJ.[…] LONG-CHAIN-FATTY-ACID-COA LIGASE, PUTATIVE
  fold change vs vehicle control: 1.05
Protein LMJF.01.0570 TRIC[…], PUTATIVE
  fold change: 0.89
Protein LMJF.03.0200, DELTA-1-PYRROLINE-5-CARBOXYLATE DEHYDROGENASE, PUTATIVE
  fold change relative to vehicle control: 1.13
Protein LMJF.03.0230 LONG CHAIN FATTY ACYL COA SYNTHETASE, PUTATIVE
  fold change: 0.93
Protein LMJF.03.0980 ELONGATION INITIATION FACTOR 2 ALPHA SUBUNIT, PUTATIVE
  fold change: 1
Protein LMJF.04.0630 HY[…], CONSERVED
  fold change vs vehicle control: 1.02
Protein LMJF.04.1230 actin
  fold change vs vehicle control: 0.94
Protein LMJF.05.0100 PHOSPHOPROTEIN PHOSPHATASE, PUTATIVE
  fold change: 0.74
Protein LMJF.05.0280 PROTEIN TYROSINE PHOSPHATASE, PUTATIVE
  fold change: 0.85
Protein LMJF.05.0510 ATPASE ALPHA SUBUNIT
  fold change: 1
Protein LMJF.05.1040 STOMATIN-LIKE PROTEIN
  fold change: 0.94
Protein LMJF.06.0650 LANOSTEROL SYNTHASE, PUTATIVE
  fold change: 0.97
Protein LMJF.07.0700 TOPOISOMERASE-RELATED FUNCTION PROTEIN-LIKE PROTEIN
  fold change vs vehicle control: 1.01
Protein LMJF.07.1000 RNA BINDING PROTEIN-LIKE PROTEIN
  fold change: 1.02
Protein LMJF.07.1140, PEPTIDE METHIONINE SULFOXIDE REDUCTASE-LIKE
  fold change relative to vehicle control: 1.3
Protein LMJF.08.0510 RIBOSE-PHOSPHATE PYROPHOSPHOKINASE, PUTATIVE
  fold change: 0.82
Protein LMJF.08.0550 T[…]-LIKE PROTEIN
  fold change vs vehicle control: 1.05
Protein LMJF.08.1030, cathepsin L-like protease
  fold change relative to vehicle control: 1.06
Protein LMJF.08.1100 HYPOTHETICAL PROTEIN, CONSERVED
  fold change vs vehicle control: 0.91
Protein LMJF.09.1010 HYPOTHETICAL PROTEIN, CONSERVED
  fold change vs vehicle control: 0.98
Protein LMJF.09.1120, MIT[…] BINDING PROTEIN 2,MRP2, GBP25
  fold change relative to vehicle control: 1.22
Protein LMJF.09.1260 HY[…], CONSERVED
  fold change vs vehicle control: 1.02
Protein LMJF.10.0210 NUCLEOLAR PROTEIN, PUTATIVE
  fold change: 0.98
Protein LMJF.10.0310 PROTEIN TRANSPORT PROTEIN SEC23, PUTATIVE
  fold change vs vehicle control: 1.08
Protein LMJF.11.0590 3-[…]-COA C[…] SUBUNIT, PUTATIVE
  fold change: 0.98
Protein LMJF.11.0630, AMINOPEPTIDASE, PUTATIVE,METALLO-PEPTIDASE, CLAN MF, FAMILY M17
  fold change relative to vehicle control: 1.23
Protein LMJF.11.1050 PRETRANSLOCATION PROTEIN, ALPHA SUBUNIT, PUTATIVE,SEC61-LIKE (PRETRANSLOCATION PROCESS) PROTEIN, PUTATIVE
  fold change vs vehicle control: 0.89
Protein LMJF.11.1160 PROTEIN TRANSPORT PROTEIN SEC31, PUTATIVE
  fold change: 0.83
Protein LMJF.12.0030 PROTEASOME BETA-1 SUBUNIT, PUTATIVE
  fold change: 0.95
Protein LMJF.12.0210 […] […]1L8 3, PUTATIVE
  fold change vs vehicle control: 1.05
Protein LMJF.12.0530, GLUCOSE-6-PHOSPHATE ISOMERASE
  fold change relative to vehicle control: 1.53
Protein LMJF.12.0630 ALANINE AMINOTRANSFERASE
  fold change: 0.86
Protein LMJF.13.1230 40S RIBOSOMAL PROTEIN S4, PUTATIVE
  fold change vs vehicle control: 1.16
Protein LMJF.14.0310 […] 3 SUBUNIT, PUTATIVE
  fold change vs vehicle control: 1.04
Protein LMJF.14.0660 FATTY ACID ELONGASE, PUTATIVE
  fold change: 0.88
Protein LMJF.14.0670 FATTY ACID ELONGASE, PUTATIVE
  fold change: 0.9
Protein LMJF.14.0680 FATTY ACID ELONGASE, PUTATIVE
  fold change vs vehicle control: 1.06
Protein LMJF.14.0990 ADP/ATP MITOCHONDRIAL CARRIER-LIKE PROTEIN
  fold change: 0.97
Protein LMJF.14.1160 ENOLASE
  fold change vs vehicle control: 1.01
Protein LMJF.14.1440 HYPOTHETICAL PROTEIN, CONSERVED (cytoskeleton associated protein, putative)
  fold change: 0.9
Protein LMJF.15.0040 HYPOTHETICAL PROTEIN, CONSERVED (Possible lysine decarboxylase, putative)
  fold change: 0.89
